Assays:
[1] = molecular target: T1, DDR2 (Homo sapiens, UniProt Q16832); assay: LanthaScreen Europium Kinase Binding assay, DDR2; settings: 5 nM DDR2, 10 nM Kinase Tracer 178, 1 h at rt; Ki from IC50 by Cheng-Prusoff; read-out: Ki DDR2
T1 construct: purchased Life Technologies
T1 sequence (Q16832 22-855): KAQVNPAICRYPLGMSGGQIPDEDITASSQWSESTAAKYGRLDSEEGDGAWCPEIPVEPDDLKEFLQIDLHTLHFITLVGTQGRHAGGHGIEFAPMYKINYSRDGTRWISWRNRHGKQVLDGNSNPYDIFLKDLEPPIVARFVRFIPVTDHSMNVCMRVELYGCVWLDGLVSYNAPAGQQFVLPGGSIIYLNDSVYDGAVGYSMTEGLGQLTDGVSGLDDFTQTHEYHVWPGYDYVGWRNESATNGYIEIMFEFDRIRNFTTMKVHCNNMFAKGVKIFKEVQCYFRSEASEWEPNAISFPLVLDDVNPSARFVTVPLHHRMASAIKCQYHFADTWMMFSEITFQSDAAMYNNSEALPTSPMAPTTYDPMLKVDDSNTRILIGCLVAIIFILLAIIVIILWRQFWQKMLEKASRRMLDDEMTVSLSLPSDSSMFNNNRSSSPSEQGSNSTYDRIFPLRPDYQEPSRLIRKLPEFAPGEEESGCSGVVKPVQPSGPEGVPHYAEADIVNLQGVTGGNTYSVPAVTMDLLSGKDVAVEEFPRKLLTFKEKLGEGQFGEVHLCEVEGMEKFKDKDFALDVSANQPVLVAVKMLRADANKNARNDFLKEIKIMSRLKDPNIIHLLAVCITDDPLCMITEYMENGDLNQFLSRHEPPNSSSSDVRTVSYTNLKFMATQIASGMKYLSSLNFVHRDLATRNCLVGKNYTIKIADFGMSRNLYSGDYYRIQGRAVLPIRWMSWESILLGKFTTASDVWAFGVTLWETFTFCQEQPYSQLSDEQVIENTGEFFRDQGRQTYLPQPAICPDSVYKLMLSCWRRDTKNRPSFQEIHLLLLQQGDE
Procedure: (§1) DDR1 and DDR2 binding assays were performed using Life Technologies LanthaScreen™ Europium Kinase Binding assay. The compounds were incubated with 5 nM DDR1 (Carna Biosciences) or 5 nM DDR2 (Life Technologies) for 1 h at rt in white 384-well OptiPlate (PerkinElmer), containing 20 nM or 10 nM Kinase Tracer 178 respectively and 2 nM Europium labelled anti-GST antibody (Life Technologies) in assay buffer (50 mM HEPES pH 7.5, 10 mM MgCI2, 1 mM EGTA and 0.01% BRIJ35). The ratio of fluorescence emission 665 nm/615 nm after excitation at 340 nm was obtained using the Tecan Spark 20M plate reader. IC50 values were determined in GraphPad Prism 7.0 software, using 4 parameter model: log(inhibitor) vs. response. IC50 values were converted in Ki using the Cheng-Prusoff equation (Ki=IC50/(1+[Tracer]/Kd).

[2] = molecular target: T2, DDR1 (Homo sapiens, UniProt Q08345); assay: LanthaScreen Europium Kinase Binding assay, DDR1; settings: 5 nM DDR1, 20 nM Kinase Tracer 178, 1 h at rt; Ki from IC50 by Cheng-Prusoff; read-out: Ki DDR1
T2 construct: purchased Carna Biosciences
T2 sequence (Q08345 19-913): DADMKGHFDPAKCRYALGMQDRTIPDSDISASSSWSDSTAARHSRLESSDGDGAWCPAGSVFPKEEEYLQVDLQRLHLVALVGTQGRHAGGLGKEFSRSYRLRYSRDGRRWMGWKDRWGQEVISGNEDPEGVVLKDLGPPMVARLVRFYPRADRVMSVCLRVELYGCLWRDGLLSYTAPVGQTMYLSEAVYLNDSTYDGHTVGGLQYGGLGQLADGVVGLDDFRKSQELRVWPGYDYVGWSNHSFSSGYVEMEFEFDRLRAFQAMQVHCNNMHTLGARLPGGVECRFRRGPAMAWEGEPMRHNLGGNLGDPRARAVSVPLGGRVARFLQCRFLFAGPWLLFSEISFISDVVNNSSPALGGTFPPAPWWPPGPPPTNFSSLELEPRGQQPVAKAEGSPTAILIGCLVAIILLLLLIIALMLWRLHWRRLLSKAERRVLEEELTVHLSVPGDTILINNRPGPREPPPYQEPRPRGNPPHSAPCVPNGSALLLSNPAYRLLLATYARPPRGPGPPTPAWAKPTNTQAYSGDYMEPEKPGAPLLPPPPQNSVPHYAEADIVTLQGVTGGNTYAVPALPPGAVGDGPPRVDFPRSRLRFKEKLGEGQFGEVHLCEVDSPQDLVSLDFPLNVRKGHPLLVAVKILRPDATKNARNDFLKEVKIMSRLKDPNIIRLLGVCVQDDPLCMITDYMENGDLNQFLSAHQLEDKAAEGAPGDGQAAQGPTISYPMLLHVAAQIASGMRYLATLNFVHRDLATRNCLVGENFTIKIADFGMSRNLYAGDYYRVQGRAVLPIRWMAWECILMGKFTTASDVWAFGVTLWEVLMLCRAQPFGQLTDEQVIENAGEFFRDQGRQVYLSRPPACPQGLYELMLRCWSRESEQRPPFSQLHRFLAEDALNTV
Procedure: as §1

Row | Structure (SMILES) | Ki [1] | Ki [2]
1 | Cc1ccc(C(=O)Nc2ccc(OC(F)(F)F)cn2)cc1[C@@H]1CCN(c2cncc(C(N)=O)c2)C1 [Example 10, (S)-5-(3-(2-methyl-5-((5-(trifluoromethoxy)pyridin-2-yl)carbamoyl)phenyl)pyrrolidin-1-yl)nicotinamide] | 5 to 25 nM | < 5 nM
2 | Cc1ccc(C(=O)Nc2cc(C(C)(C)C)on2)cc1[C@@H]1CCN(c2cncc(C(N)=O)c2)C1 [Example 11, (S)-5-(3-(5-((5-(tert-butyl)isoxazol-3-yl)carbamoyl)-2-methylphenyl)pyrrolidin-1-yl)nicotinamide] | < 5 nM | < 5 nM
3 | Cc1ccc(C(=O)Nc2cc(OC(F)(F)F)ccn2)cc1[C@@H]1CCN(c2cncnc2)C1 [Example 12, (S)-4-methyl-3-(1-(pyrimidin-5-yl)pyrrolidin-3-yl)-N-(4-(trifluoro-methoxy)pyridin-2-yl)benzamide] | < 5 nM | < 5 nM
4 | Cc1ccc(C(=O)Nc2cc(C(C)(C)C)n(C)n2)cc1[C@@H]1CCN(c2cncnc2)C1 [Example 13, (S)-N-(5-(tert-butyl)-1-methyl-1H-pyrazol-3-yl)-4-methyl-3-(1-(pyrimidin-5-yl)pyrrolidin-3-yl)benzamide] | < 5 nM | < 5 nM
5 | Cc1ccc(C(=O)Nc2cc(C(C)(C)C(F)(F)F)on2)cc1[C@@H]1CCN(c2cncnc2)C1 [Example 14, (S)-4-methyl-3-(1-(pyrimidin-5-yl)pyrrolidin-3-yl)-N-(5-(1,1,1-trifluoro-2-methylpropan-2-yl)isoxazol-3-yl)benzamide] | < 5 nM | < 5 nM
6 | Cc1ccc(C(=O)Nc2cc(C(F)(F)F)ccn2)cc1[C@@H]1CCN(c2cncnc2)C1 [Example 15, (S)-4-methyl-3-(1-(pyrimidin-5-yl)pyrrolidin-3-yl)-N-(4-(trifluoromethyl)pyridin-2-yl)benzamide] | < 5 nM | < 5 nM
7 | Cc1ccc(C(=O)Nc2cc(C(C)(C)C)on2)cc1[C@@H]1CCN(c2cncnc2)C1 [Example 16, (S)-N-(5-(tert-butyl)isoxazol-3-yl)-4-methyl-3-(1-(pyrimidin-5-yl)pyrrolidin-3-yl)benzamide] | < 5 nM | < 5 nM
8 | Cc1ccc(C(=O)Nc2cc(C(C)(C)C)nn2C)cc1[C@@H]1CCN(c2cncnc2)C1 [Example 17, (S)-N-(3-(tert-butyl)-1-methyl-1H-pyrazol-5-yl)-4-methyl-3-(1-(pyrimidin-5-yl)pyrrolidin-3-yl)benzamide] | 5 to 25 nM | < 5 nM
9 | Cc1ccc(C(=O)Nc2cncc(OC(F)(F)F)c2)cc1[C@@H]1CCN(c2cncnc2)C1 [Example 18, (S)-4-methyl-3-(1-(pyrimidin-5-yl)pyrrolidin-3-yl)-N-(5-(trifluoromethoxy)pyridin-3-yl)benzamide] | < 5 nM | < 5 nM
10 | Cc1ccc(C(=O)Nc2cc(C(C)(C)C)no2)cc1[C@@H]1CCN(c2cncnc2)C1 [Example 19, (S)-N-(3-(tert-butyl)isoxazol-5-yl)-4-methyl-3-(1-(pyrimidin-5-yl)pyrrolidin-3-yl)benzamide] | < 5 nM | < 5 nM
11 | Cc1ccc(C(=O)Nc2ccc(OC(F)(F)F)cn2)cc1[C@@H]1CCN(c2cncnc2)C1 [Example 20, (S)-4-methyl-3-(1-(pyrimidin-5-yl)pyrrolidin-3-yl)-N-(5-(trifluoromethoxy)pyridin-2-yl)benzamide] | 5 to 25 nM | < 5 nM
12 | Cc1ccc(C(=O)Nc2cc(OC(F)F)ccn2)cc1[C@@H]1CCN(c2cncnc2)C1 [Example 21, (S)-N-(4-(difluoromethoxy)pyridin-2-yl)-4-methyl-3-(1-(pyrimidin-5-yl)pyrrolidin-3-yl)benzamide] | < 5 nM | < 5 nM
13 | Cc1ccc(C(=O)Nc2cncc(C(F)(F)F)c2)cc1[C@@H]1CCN(c2cncc(C(F)F)c2)C1 [Example 22, (S)-3-(1-(5-(difluoromethyl)pyridin-3-yl)pyrrolidin-3-yl)-4-methyl-N-(5-(trifluoromethyl)pyridin-3-yl)benzamide] | 5 to 25 nM | < 5 nM
14 | Cc1ccc(C(=O)Nc2cncc(C(F)(F)F)c2)cc1[C@@H]1CCN(c2cncc(C(=O)NCCN(C)C)c2)C1 [Example 23, (S)-N-(2-(dimethylamino)ethyl)-5-(3-(2-methyl-5-((5-(trifluoromethyl)pyridin-3-yl)carbamoyl)phenyl)pyrrolidin-1-yl)nicotinamide] | 5 to 25 nM | < 5 nM
15 | COCCNC(=O)c1cncc(N2CC[C@@H](c3cc(C(=O)Nc4cncc(C(F)(F)F)c4)ccc3C)C2)c1 [Example 24, (S)-N-(2-methoxyethyl)-5-(3-(2-methyl-5-((5-(trifluoromethyl)pyridin-3-yl)carbamoyl)phenyl)pyrrolidin-1-yl)nicotinamide] | < 5 nM | < 5 nM
16 | COc1ncc(N2CC[C@@H](c3cc(C(=O)Nc4cncc(C(F)(F)F)c4)ccc3C)C2)cn1 [Example 25, (S)-3-(1-(2-methoxypyrimidin-5-yl)pyrrolidin-3-yl)-4-methyl-N-(5-(trifluoromethyl)pyridin-3-yl)benzamide] | 5 to 25 nM | < 5 nM
17 | Cc1ccc(C(=O)Nc2cncc(C(F)(F)F)c2)cc1[C@@H]1CCN(c2cncc(C#N)c2)C1 [Example 27, (S)-3-(1-(5-cyanopyridin-3-yl)pyrrolidin-3-yl)-4-methyl-N-(5-(trifluoromethyl)pyridin-3-yl)benzamide] | < 5 nM | < 5 nM
18 | CC(=O)Nc1cncc(N2CC[C@@H](c3cc(C(=O)Nc4cncc(C(F)(F)F)c4)ccc3C)C2)c1 [Example 28, (S)-3-(1-(5-acetamidopyridin-3-yl)pyrrolidin-3-yl)-4-methyl-N-(5-(trifluoromethyl)pyridin-3-yl)benzamide] | < 5 nM | < 5 nM
19 | CNC(=O)c1cncc(N2CC[C@@H](c3cc(C(=O)Nc4cncc(C(F)(F)F)c4)ccc3C)C2)c1 [Example 29, (S)-N-methyl-5-(3-(2-methyl-5-((5-(trifluoromethyl)pyridin-3-yl)carbamoyl)phenyl)pyrrolidin-1-yl)nicotinamide] | < 5 nM | < 5 nM
20 | Cc1ccc(C(=O)Nc2cncc(C(F)(F)F)c2)cc1[C@@H]1CCN(c2cncc(C(=O)NCCO)c2)C1 [Example 30, (S)-N-(2-hydroxyethyl)-5-(3-(2-methyl-5-((5-(trifluoromethyl)pyridin-3-yl)carbamoyl)phenyl)pyrrolidin-1-yl)nicotinamide] | 5 to 25 nM | < 5 nM
21 | Cc1ccc(C(=O)Nc2cncc(C(F)(F)F)c2)cc1[C@@H]1CCN(c2cnn3ccncc23)C1 [Example 32, (S)-4-methyl-3-(1-(pyrazolo[1,5-a]pyrazin-3-yl)pyrrolidin-3-yl)-N-(5-(trifluoromethyl)pyridin-3-yl)benzamide] | < 5 nM | < 5 nM
22 | Cc1ccc(C(=O)Nc2cncc(C(F)(F)F)c2)cc1[C@@H]1CCN(c2cnccn2)C1 [Example 33, (S)-4-methyl-3-(1-(pyrazin-2-yl)pyrrolidin-3-yl)-N-(5-(trifluoromethyl)pyridin-3-yl)benzamide] | < 5 nM | < 5 nM
23 | Cc1ccc(C(=O)Nc2cncc(C(F)(F)F)c2)cc1[C@@H]1CCN(c2cnn3ccccc23)C1 [Example 34, (S)-4-methyl-3-(1-(pyrazolo[1,5-a]pyridin-3-yl)pyrrolidin-3-yl)-N-(5-(trifluoromethyl)pyridin-3-yl)benzamide] | 5 to 25 nM | < 5 nM
24 | Cc1ccc(C(=O)Nc2cncc(C(F)(F)F)c2)cc1[C@@H]1CCN(c2cnn3cccnc23)C1 [Example 35, (S)-4-methyl-3-(1-(pyrazolo[1,5-a]pyrimidin-3-yl)pyrrolidin-3-yl)-N-(5-(trifluoromethyl)pyridin-3-yl)benzamide] | < 5 nM | < 5 nM
25 | Cc1ccc(C(=O)Nc2cncc(C(F)(F)F)c2)cc1[C@@H]1CCN(c2cnc3cccnn23)C1 [Example 36, (S)-3-(1-(imidazo[1,2-b]pyridazin-3-yl)pyrrolidin-3-yl)-4-methyl-N-(5-(trifluoromethyl)pyridin-3-yl)benzamide] | 5 to 25 nM | < 5 nM
